# Source: the supplement of paper PMC13380429
# Key:
# Details in all cases: 72 h
# Caco-2 [1] = test: cell viability relative to DMSO; higher = less toxic
# Calu-3 [2] = test: as above
# HepG2 [3] = test: as above
# U2OS [4] = test: as above
# Vero E6 [5] = test: as above
# Caco-2 [6] = test: relative viability EC50 (midpoint between 100% and the lowest measured viability); higher = less toxic
# Calu-3 [7] = test: as above
# HepG2 [8] = test: as above
# U2OS [9] = test: as above
# Vero E6 [10] = test: as above
# Caco-2 [11] = test: drug sensitivity score (DSS) for viability; higher = more toxic; extreme values may be limits of the assay
# Calu-3 [12] = test: as above
# HepG2 [13] = test: as above
# U2OS [14] = test: as above
# Vero E6 [15] = test: as above
Structure (SMILES),cell viability (Caco-2 [1]; 1 nM) [%],cell viability (Caco-2 [1]; 10 nM) [%],cell viability (Caco-2 [1]; 100 nM) [%],cell viability (Caco-2 [1]; 1000 nM) [%],cell viability (Caco-2 [1]; 10000 nM) [%],cell viability (Calu-3 [2]; 1 nM) [%],cell viability (Calu-3 [2]; 10 nM) [%],cell viability (Calu-3 [2]; 100 nM) [%],cell viability (Calu-3 [2]; 1000 nM) [%],cell viability (Calu-3 [2]; 10000 nM) [%],cell viability (HepG2 [3]; 1 nM) [%],cell viability (HepG2 [3]; 10 nM) [%],cell viability (HepG2 [3]; 100 nM) [%],cell viability (HepG2 [3]; 1000 nM) [%],cell viability (HepG2 [3]; 10000 nM) [%],cell viability (U2OS [4]; 1 nM) [%],cell viability (U2OS [4]; 10 nM) [%],cell viability (U2OS [4]; 100 nM) [%],cell viability (U2OS [4]; 1000 nM) [%],cell viability (U2OS [4]; 10000 nM) [%],cell viability (Vero E6 [5]; 1 nM) [%],cell viability (Vero E6 [5]; 10 nM) [%],cell viability (Vero E6 [5]; 100 nM) [%],cell viability (Vero E6 [5]; 1000 nM) [%],cell viability (Vero E6 [5]; 10000 nM) [%],relative viability EC50 (Caco-2 [6]) [µM],relative viability EC50 (Calu-3 [7]) [µM],relative viability EC50 (HepG2 [8]) [µM],relative viability EC50 (U2OS [9]) [µM],relative viability EC50 (Vero E6 [10]) [µM],drug sensitivity score (Caco-2 [11]),drug sensitivity score (Calu-3 [12]),drug sensitivity score (HepG2 [13]),drug sensitivity score (U2OS [14]),drug sensitivity score (Vero E6 [15])
COc1ccc(CC2NCCc3cc(OC)c(OC)cc32)cc1OC (stereo not given) [tetrahydropapaverine],99.8,99,99.5,102,94.4,95.9,86.9,99.7,83.3,98.7,99.1,99.9,91.5,98.6,103,99.5,93.2,103,90.9,96.9,94.3,99.8,95.3,98.6,104,> 10,> 10,> 10,> 10,> 10,0,0,0,0,0
CN1CCN(CCCN2c3ccccc3Sc3ccc(S(=O)(=O)N(C)C)cc32)CC1 [thioproperazine],95.7,93.3,89.6,113,79,98,93.5,105,103,90.9,108,103,105,99.6,92.5,107,97.1,104,99.7,97.9,99.3,95.9,94.9,85.2,90.6,> 10,> 10,> 10,> 10,> 10,0.4,0,0,0,0.6
[Cl][Ti][Cl].c1cc[cH-]c1.c1cc[cH-]c1 [titanocene-dichloride],97.7,98.2,99.2,94.6,95.8,99.2,97.1,112,97.1,110,89.6,91.9,97.2,104,101,93.2,93.1,97.5,94.6,96.1,93.7,95.2,93.4,98.9,105,> 10,> 10,> 10,> 10,> 10,0,0,0,0,0
Cc1ccc(O)c([C@H](CCN(C(C)C)C(C)C)c2ccccc2)c1 [tolterodine],102,89.6,98.5,85.9,108,99.7,94.1,88.6,88.6,95.8,115,98.5,102,105,92.7,99.9,94.4,99.9,98.7,96.1,105,99.8,102,103,96.9,> 10,> 10,> 10,> 10,> 10,0,0.8,0,0,0
CS(=O)(=O)OC[C@H](O)[C@@H](O)COS(C)(=O)=O [treosulfan],95.6,96.4,102,90.9,99.3,105,104,102,98.8,111,93.1,93.6,94.6,108,108,104,94.7,103,94,99.2,92.3,100,92.5,98.2,106,> 10,> 10,> 10,> 10,> 10,0,0,0,0,0
CCN(Cc1ccncc1)C(=O)C(CO)c1ccccc1 (stereo not given) [tropicamide],86.2,96.9,97.2,89.4,101,98.6,90.5,101,95.9,103,106,98,107,91.9,97.8,91.7,98.8,95.4,99,103,94.2,88.8,91.8,84.8,102,> 10,> 10,> 10,> 10,> 10,0,0,0,0,0
O=C(CCCCCCC(=O)Nc1ccccc1)NO [vorinostat],89.9,99.9,93.9,93.9,2.5,96.1,96.9,87.2,62.1,20.2,111,98.2,98.1,69.8,3,97.4,96.3,94.9,79.5,2.2,99.5,99.5,103,88.9,0.3,2.66,0.91,1.37,1.7,2.25,6.3,9.1,9.7,8.7,7.3
